{"source": "patent US9593146B2", "about": "“CD44v6-derived peptides for treating metastasizing cancer” (AMCURE GMBH, priority 2012, dated 2017)", "key": {"[1]": {"tested_on": "BSp73ASs6 cells", "assay": "Staining of fixed BSp73ASs6 cells with DY681-labeled peptides", "format": "cell-based, rat", "conditions": "DY681-labeled peptide for one hour", "description": "(§1) ASs6 or L3.6pl cells were seeded at 5,000 cells/well of a Lab-TekR Chamber Slide™ (Nunc, Napierville, Ill., USA). On the following day the cells were washed with cold PBS and fixed with 4% Formalin for 30 min at RT. Unspecific binding was blocked with 1% BSA in PBS for 1 hour at RT. The cells were incubated for 1 hour with the DY681-labeled peptides. After three washing steps with PBS the cover slips were mounted with Fluorescence Mounting Medium (Dako, Glostrup, Denmark) and the immunofluorescence was measured by a laser scanning confocal microscope Leica TCS2 SP2 (Exton, Pa., USA) and processed using Leica confocal software. A 20× objective was used for imaging."}, "[2]": {"tested_on": "Met and ERK", "assay": "HGF induced activation of Met and Erk in BSp73ASs6 cells (Western blot)", "format": "cell-based, rat", "conditions": "BSp73ASs6 cells induced with HGF in the presence of the labeled peptide (FIG. 3A right)", "description": "(§2) Serum-starved cells (24 hours) were induced with the growth factor HGF (10 ng/mL) at 37° C. for 5 minutes. Where indicated, the cells were treated with peptides (100 ng/ml) prior to induction at 37° C. for 10 minutes (100 ng/mL CD44v6 peptide or control peptide). Following the induction with HGF, cells were washed with ice-cold phosphate-buffered saline (PBS). To detect activated Met and Erk, cells were lysed in sodium dodecyl sulfate (SDS)-sample buffer containing 100 mM dithiothreitol (DTT), boiled and subjected to western blot analysis using antibodies against phospho-Met and ERK. The loading controls were performed on the same blot after stripping (62.5 mM Tris, pH 6.8, 2% SDS, 0.8% DTT) by probing with the Met respectively ERK antibody. Blots were stained using the enhanced chemiluminescence system (Thermo Fisher Scientific, Schwerte, Germany). Bands in western blot analysis were quantified with the program Image J (National Institutes of Health).\nRat pancreatic cancer cells BSp73ASs6 (also designated Ass6) were incubated for 10 min at 37° C. with either ctrl-peptides (SEQ ID No.: 15), non-pegylated v6-peptides (SEQ ID No.: 11) and increasing concentrations of the pegylated peptides, namely PEG-rat control peptide and PEG-rat CD44v6 peptide, before induction with HGF (10 ng/ml; 5 min at 37° C.).\nActivation of ERK and Met was determined by standard SDS and Western Blotting techniques using a phospho-Met and phospho-Erk specific antibody (phospho-Met clone D16 cell signaling, phospho-Erk p42/44 cell signaling)\nASs6 cells, serum starved for 24 h, were induced with HGF (10 ng/ml) at 37° C. for 5 min. Where indicated, the cells were treated with PEGylated or non-PEGylated peptides before induction at 37° C. for 10 min (150 nM). Cells were washed with phosphate-buffered saline (PBS) and lysed in boiling sodium dodecyl sulfate (SDS)-sample buffer containing 100 mM dithiothreitol (DTT). Subsequently, lysates were subjected to Western blot analysis using antibodies against phosphorylated Mek and Erk (Cell signaling). The Mek and Erk loading control were performed on the same blot, stripped (62.5 mM Tris pH 6.8, 2% SDS, 0.8% DTT) and probed with the Mek and Erk antibodies. Blots were stained using the enhanced chemiluminescence system (Thermo Fisher Scientific)."}, "[3]": {"tested_on": "L3.6pl tumors", "assay": "In vivo / ex vivo imaging (Pearl Imager) of mice with L3.6pl tumors", "conditions": "for fluorescence / accumulation in the orthotopic L3.6pl tumor in vivo: 20 μg i.v., 24 h after injection", "description": "In vivo imaging of the mice with the L3.6pl tumors was performed using the Pearl™ Imager (LI-COR Biosciences, Bad Homburg, Germany). The system uses two lasers (685 and 785 nm) for excitation and a charge-coupled device detector for signal detection. The laser excitation enables a deep tissue penetration. With the near-infrared detection a high sensitivity due to the reduced tissue auto-fluorescence is achieved. In order to standardize the images we made use of the Pearl Cam Software. The animals were fed with chlorophyll-reduced food to reduce the fluorescence background one week before imaging (Regime 210, safe-diets, Augy, France). Prior to imaging the mice were anesthetized with 2.0% isoflurane. Animals were placed on the heated plate of the imager and continuous delivery of isoflurane was achieved through a nose cone in the imaging drawer. Images were captured at white light, 700 and 800 nm. Animals were imaged prior to i.v. peptide injection and 24 h after injection with either DY681-labeled human v6 peptide or DY681-labeled rat v6 peptide as control. Immediately after each imaging session animals were killed, tumor, liver and spleen isolated and scanned ex vivo at white light, 700 and 800 nm."}, "[4]": {"tested_on": "BSp73ASs6 tumors", "conditions": "rat", "experimental": "In vivo imaging of the subcutaneously grown BSp73ASs6 tumors in BD10 or BDX rats was performed using the near infrared fluorescence (NIRF)-imaging system Optix MX2 (ART, Montreal, Canada) as described earlier (Napp et al., Int J Cancer (2010), 127:1958-1974). To avoid autofluorescence of fur, rats were shaved around the tumor prior to imaging. Subsequently, animals were anesthetized using 2% isoflurane and gently fixed on the devices' heated plate for the entire time of data acquisition. To reduce fluorescence background, rats were fed with chlorophyll-reduced food (Provimi Kliba AG, Kaiseraugst, Switzerland) for one week prior NIRF imaging. All in vivo analyses were preceded by native scans of animals without any injection of the fluorescent probe. […] The rat 11mer had the sequence [sequence] (SEQ ID No.: 12), the mouse 11mer had the sequence [sequence] (SEQ ID No.: 13) and the human 11mer had the sequence [sequence] (SEQ ID No.: 14). All peptides were labeled with the fluorescent dye DY681. Data were acquired at the indicated time after injection of the peptides. For ex vivo monitoring animals were sacrificed after 24 hrs after peptide injection and tumor and organs of interest were scanned ex vivo using Optix MX2.\nDY681 fluorescence was measured using excitation at 670 nm in combination with a 700 nm long-pass emission filter. […] Data sets were analyzed with OptiView (ART)."}, "[5]": {"tested_on": "L3.6pl cells", "assay": "Staining of L3.6pl cells with DY681-labeled peptides", "format": "cell-based, human", "conditions": "DY681 labeled peptide", "description": "as §1"}, "[6]": {"tested_on": "Met and ERK", "assay": "HGF induced activation of Met and ERK in L3.6pl cells (Western blot)", "format": "cell-based, human", "conditions": "L3.6pl cells induced with HGF (FIG. 5A right)", "description": "as §2"}, "[7]": {"tested_on": "Met", "conditions": "N to A and E to A mutated pentapeptide; cited from earlier work"}}}
{"substance": "WFQNGWQGKNP [mv6 pep Dy681, mouse v6 11mer labeled with DY681, control, reference compound]", "values": [{"measurement": "binding to BSp73ASs6 cells in tissue culture", "setting": "[1]", "result": "not the DY681-labeled mouse v6 peptide bound to BSp73ASs6 cells"}, {"measurement": "inhibition of Met activation by DY681 labeled peptide", "setting": "[2]", "result": "not the mouse peptide inhibited Met activation"}]}
{"substance": "WFENEWQGKNP [rv6 pep Dy681]", "values": [{"measurement": "binding to BSp73ASs6 cells in tissue culture", "setting": "[1]", "result": "bound to BSp73ASs6 cells in tissue culture"}, {"measurement": "fluorescence / accumulation in the orthotopic L3.6pl tumor in vivo", "setting": "[3]", "result": "No fluorescence was detected"}, {"measurement": "inhibition of Met activation by DY681 labeled peptide", "setting": "[2]", "result": "inhibited Met activation"}, {"measurement": "fluorescence in excised tumors and lungs ex vivo", "setting": "[4]", "result": "could only be detected in tumors and in specific areas of the lungs"}]}
{"substance": "WFGNRWHEGYR [DY681 human v6 peptide, human v6 11mer labeled with DY681]", "values": [{"measurement": "fluorescence / accumulation in the orthotopic L3.6pl tumor in vivo", "setting": "[3]", "result": "accumulated specifically in the tumor"}, {"measurement": "ex vivo binding to primary tumors, livers", "setting": "[3]; organs excised 24 h after injection", "result": "binding not only to primary tumors but also to areas of the liver"}, {"measurement": "binding to L3.6pl cells in cell culture", "setting": "[5]", "result": "bound to these cells in cell culture"}, {"measurement": "inhibition of Met activation by DY681 labeled peptide", "setting": "[6]", "result": "inhibited Met activation in L3.6pl cells"}]}
{"substance": "A-R-W-H-A (ARWHA) [pentapeptide with N and E mutated to A]", "values": [{"measurement": "Met activation", "setting": "[7]", "result": "capable of abrogating Met activation"}]}
